Assay results: patent US20230118642A1, “METHOD FOR TREATING THERAPY-RESISTANT MUC4+ CANCER” (CONSEJO NACIONAL DE INVESTIGACIONES CIENTÍFICAS Y TÉCNICAS, priority 2020, published 2023)

Legend:
[1] = test system: HCC70 triple-negative breast cancer cell line; assay: HCC70 cell viability, CellTiter Glo 2.0; format: cell-based; settings: 72 h
Procedure: (§1) FIG. 25(A-C) INB03 enhances sorafenib inhibition in cell proliferation of colon, gastric and triple-negative breast cancer cells. Cell proliferation was evaluated in the HT-29 colon cancer (FIG. 25A), SNU-1 gastric cancer (FIG. 25B) and in the in the HCC-70 triple-negative breast cancer cell lines (FIG. 25C). Cells were treated with vehicle (DMSO 0.1%), sorafenib (Soraf), or INB03 (10 μg/ml), alone or in different combinations for 72 h. (FIGS. 25A and B) HT-29 and SNU-1 cell proliferation was evaluated by cell count Countess automatic cell count. (FIG. 25C) HCC70 cell viability was analyzed by CellTiter Glo 2.0 assay.
FIG. 26 INB03 enhances cediranib inhibition in cell viability of HCC70 triple-negative breast cancer cells. Cell viability was evaluated in the HCC70 cell line. Cells were treated with vehicle (DMSO 0.1%), cediranib (cedir), or INB03 (10 μg/ml), alone or in different combinations for 72 h. Cell viability was analyzed by CellTiter Glo 2.0 assay.

MDA-MB-468 cell line = assay: MDA-MB-468 cell viability, CellTiter Glo 2.0; format: cell-based; settings: Homo sapiens, 72 h, read-out: decrease of MDA-MB-468 cell viability
Procedure: FIG. 24 INB03 enhances erlotinib inhibition in cell viability of MDA-MB 468 triple-negative breast cancer cells. Cell viability was evaluated in the MDA-MB-468 cell line. Cells were treated with vehicle (DMSO 0.1%), erlotinib (erlot), or INB03 (10 μg/ml), alone or in different combinations for 72 h.

JIMT-1-shMUC4 cells [2] = assay: JIMT-1-shMUC4 cell proliferation with lapatinib and TNFα blockade, cell count at 72 h; format: cell-based
Procedure: (§2) Then, to study the participation of MUC4 in lapatinib resistance, we transduced the trastuzumab-resistant JIMT-1 cell line with a plasmid encoding a doxycycline (Dox)-inducible shRNA targeting MUC4, and obtained JIMT-1-shMUC4 cells.
(§3) FIG. 18 TNFα blockade sensitizes lapatinib-resistant cells in vitro. Cell proliferation was evaluated in JIMT-1 and JIMT-1-shMUC4 cell lines by cell count at 72 h of treatment. Cells were treated with immunoglobulin G (IgG 5 μg/ml), lapatinib (Lap 1 μM), etanercept (E 5 μg/ml), or INB03 (DN; 10 μg/ml), alone or in different combinations. FIG. 18A. JIMT-1 wild type. FIGS. 18B and 18C JIMT-1-shMUC4 and in C cells were treated with Dox 10 μg/ml for 10 days before and during the experiment to assure MUC4 downregulation.

JIMT-1 = JIMT-1 migration with lapatinib and TNF-blocking agents; format: cell-based
Procedure: (§4) Again, lapatinib is used in the metastatic setting (infra). The metastatic cascade is a multistep process that involves migration and invasion of tumor cells that pass through the basement membrane and extracellular matrix, the intravasation to the lymphatic or vascular circulation, the extravasation and the attachment of a new location to generate a secondary tumor. The migration ability of JIMT-1 treated with lapatinib and TNF-blocking agents was evaluated. […] To study MUC4 contribution on the inhibition of migration observed by simultaneous treatment of TNF-blocking drugs and lapatinib, the JIMT-1 cell line was transduced with a plasmid encoding a doxycycline-inducible shRNA targeting MUC4, and JIMT-1-shMUC4 cells were obtained (FIGS. 16 B and C).

JIMT-1-shMUC4 cells [3] = assay: JIMT-1-shMUC4 migration with lapatinib and TNF-blocking agents; format: cell-based
Procedure: as §4

[4] = test system: SK-OV-3 ovarian cancer cell line; assay: SK-OV-3 cell viability, CellTiter Glo 2.0; format: cell-based; settings: lapatinib 2.5 μM alone, 72 h
Procedure: Cells were treated with vehicle (DMSO 0.1%), lapatinib (Lap), or NB03 (10 μg/ml), alone or in different combinations for 72 h. (FIG. 22A) SK-OV-3 cells viability was analyzed by CellTiter Glo 2.0 assay. […] Data was analyzed by one-way ANOVA coupled with a Tukey's post hoc test. The data as shown represents mean SEM. *p<0.05, **p<0.01.

[5] = test system: SNU-1 gastric cancer cell line; assay: SNU-1 cell proliferation, Countess automatic cell count; format: cell-based; settings: 72 h
Procedure: In order to extend our findings of the role of INB03 in increasing lapatinib inhibitory effect on HER2+ breast cancer cell proliferation to other tumor types, we used both drugs in the ovarian cancer SK-OV-3 cells and in the gastric SNU-1 cells. Both cell lines express HER2 and MUC4.
FIG. 22(A-B) INB03 enhances lapatinib inhibition in cell proliferation of ovarian and gastric cancer cell. Cell proliferation was evaluated in the SK-OV-3 ovarian cancer cell line (FIG. 22A) and in the SNU-1 gastric cancer cell line. Cells were treated with vehicle (DMSO 0.1%), lapatinib (Lap), or NB03 (10 μg/ml), alone or in different combinations for 72 h. (FIG. 22A) SK-OV-3 cells viability was analyzed by CellTiter Glo 2.0 assay. (FIG. 22B) SNU-1 cell proliferation was evaluated by cell count Countess automatic cell count.
as §1

[6] = stated without test; cited from earlier work
HER2+ breast cancer = settings: patients with trastuzumab-resistant disease; cited from earlier work
HT-29 colon cancer cells = assay: HT-29 cell proliferation, Countess automatic cell count; format: cell-based; settings: 72 h
Procedure: as §1

JIMT-1 cell line [7] = assay: JIMT-1 cell proliferation with lapatinib and TNFα blockade, cell count at 72 h; format: cell-based; settings: TNFα blocker simultaneously with lapatinib 1 μM, E 5 μg/ml, INB03 10 μg/ml
Procedure: as §2, §3

JIMT-1 cell line [8] = assay: JIMT-1 cell proliferation, [3H]-thymidine incorporation; format: cell-based; settings: 48 h treatment, 18 h pulse; T 10 μg/ml, P 10 μg/ml, E 5 μg/ml, DN 2 μg/ml; vs IgG
Procedure: A strategy of implementing a TNFα blockade was employed, either with Etanercept (E) or the dominant negative protein XPRO1595 (DN) in JIMT-1, de novo T and T+P resistant cell line which produces TNFα. JIMT-1 tumors were established in female nude mice to explore whether TNFα blockade overcomes T+P resistance. Animals were treated with 5 mg/kg of IgG, P, T+P, 10 mg/kg of DN or P+T+DN i.p. twice a week. […] Proliferation of cells treated with IgG, T, P, DN, E (10 μg/ml, 10 μg/ml, 10 μg/ml, 2 μg/ml and 5 μg/ml respectively) as monotherapy and in different combinations was evaluated by cell count or [3H]-thymidine incorporation. The combination of TNFα blockade with T+P inhibited cell proliferation vs. IgG, P+T, P+E, P+DN (p<0.0001).
Cell proliferation in JIMT-1 cell line was evaluated by ^3[H]-thymidine incorporation assay at 48 h of treatment with 18 h pulse (See Rivas M A, et al., Exp Cell Res 2008; 314:509-29, the contents of which are hereby incorporated by reference). […] The data as shown in FIG. 3 represents mean±standard deviation *p<0.05, **p<0.01, ***p<0.001 vs. IgG.

With `COc1cc2c(Oc3ccc4[nH]c(C)cc4c3F)ncnc2cc1OCCCN1CCCC1` [cediranib] as the compound, how does the cytotoxicity at 2.5 µM ([1]; Homo sapiens, HCC70, cediranib 2.5 μM alone, read-out: effect on HCC70 cell viability) read?
The cytotoxicity at 2.5 µM was 20%.

And the cytotoxicity at 5 µM ([1]; Homo sapiens, HCC70, cediranib 5 μM alone, read-out: effect on HCC70 cell viability)?
The cytotoxicity at 5 µM was 46%.

For `C#Cc1cccc(Nc2ncnc3cc(OCCOC)c(OCCOC)cc23)c1` [erlotinib], which cytotoxicity at 1.25 µM (MDA-MB-468 cell line; erlotinib 1.25 μM alone) is on record?
The cytotoxicity at 1.25 µM was 27%.

What about the cytotoxicity at 2.5 µM (MDA-MB-468 cell line; erlotinib 2.5 μM alone) of the same compound?
Its cytotoxicity at 2.5 µM is 38%.

And the cytotoxicity at 5 µM (MDA-MB-468 cell line; erlotinib 5 μM alone)?
Its cytotoxicity at 5 µM is 48%.

With `CS(=O)(=O)CCNCc1ccc(-c2ccc3ncnc(Nc4ccc(OCc5cccc(F)c5)c(Cl)c4)c3c2)o1` [lapatinib] as the compound, how does the cell proliferation (JIMT-1-shMUC4 cells [2]; JIMT-1-shMUC4 with Dox 10 μg/ml (MUC4 silenced), lapatinib) read?
Its cell proliferation is “decrease in JIMT-1 cells proliferation”.

And the JIMT-1 migration (JIMT-1; each drug alone)?
Its JIMT-1 migration is “no effect”.

What about the cell migration (JIMT-1-shMUC4 cells [3]; JIMT-1-shMUC4 with doxycycline (MUC4 silenced), lapatinib) of the same compound?
The cell migration was “decrease in JIMT-1 cells migration”.

And the “effect on viability of SK-OV-3 cells” value [4]?
Its value is “no effect”.

What about the “effect on proliferation of SNU-1 cells” value ([5]; lapatinib 1 μM alone) of the same compound?
The value was “no effect”.

And the “crossing of the blood-brain-barrier” value [6]?
Its value is “cross the blood-brain-barrier”.

What about the “patients with clinical benefit” value (HER2+ breast cancer) of the same compound?
The value was < 30%.

What does the source list for `CNC(=O)c1cc(Oc2ccc(NC(=O)Nc3ccc(Cl)c(C(F)(F)F)c3)cc2)ccn1` [sorafenib]?
effect on SNU-1 proliferation ([5]; sorafenib 1.5 μM alone): did not affect its proliferation; decrease of SNU-1 cell proliferation ([5]; sorafenib 3 μM alone): 38%; effect on HT-29 cell proliferation (HT-29 colon cancer cells; sorafenib 2.5 μM alone): no inhibitory effect; reduction of HT-29 proliferation (HT-29 colon cancer cells; sorafenib 10 μM alone): 62%; cytotoxicity at 1.5 µM ([1]; Homo sapiens, HCC70, sorafenib 1.5 μM alone, read-out: HCC70 viability reduction): 44%; effect on HCC70 viability ([1]; sorafenib 1 μM alone): no effect

With etanercept as the compound, how does the JIMT-1 cell proliferation (JIMT-1 cell line [7]) read?
Its JIMT-1 cell proliferation is “reduces JIMT-1 cell proliferation”.

What about the cell proliferation (JIMT-1-shMUC4 cells [2]; JIMT-1-shMUC4 with Dox, TNFα blocker added to lapatinib) of the same compound?
The cell proliferation was “did not further induce a decrease in cell proliferation”.

What about the JIMT-1 migration (JIMT-1; TNF blocker together with lapatinib) of the same compound?
The JIMT-1 migration was “impairs JIMT-1 migration”.

And the JIMT-1 migration (JIMT-1; each drug alone)?
Its JIMT-1 migration is “no effect”.

What about the cell migration (JIMT-1-shMUC4 cells [3]; JIMT-1-shMUC4 with doxycycline, TNF blocker added to lapatinib) of the same compound?
The cell migration was “did not further induce a decrease in cell migration”.

And the cell migration (JIMT-1-shMUC4 cells [3]; JIMT-1shMUC4 without doxycycline, TNF blocker with lapatinib)?
The cell migration was “decreased their migration”.

Which “cell proliferation in JIMT-1 cell line” value (JIMT-1 cell line [8]) does the source give for “pertuzumab: monoclonal antibody that disrupts HER2/HER3 dimerization” here?
The value was “negligible, if any, impact”.
